Measured values reported in US8283353B2, “Fused ring compound and use thereof” (Takeda Pharmaceutical Company Limited, priority 2009, dated 2012).
Structures can show the parent of a compound that is named as a salt.

Tested on: Male SHRs
Assay: Antihypertensive effect: mean blood pressure in male SHRs after oral administration
Format: in vivo, rat
Conditions: male SHR, dose 3 mg/kg, MBP measured during 24 hours
Description: Male SHRs (28-40 weeks old, Japan SLC, Inc., Japan) were anesthetized with sodium pentobarbital (50 mg/kg, i.p.). The left femoral artery was cannulated with a polyethylene catheter filled with saline comprising heparin (200 U/mL). The catheter was exteriorized at the back of the neck and each SHR was individually housed in a cage and left two or four days to recover. The mean blood pressure (MBP) was obtained from the systemic blood pressure which was monitored from the femoral artery using a pressure transducer connected to a polygraph system (Nihon Kohden Corporation). The heart rate was measured from the blood pressure pulse intervals. The rats which had MBP over 150 mmHg were used for the experiment. When the blood pressure had stabilized, vehicle (0.5 w/v % methylcellulose) or compounds were orally administered. All compounds were suspended in 0.5 w/v % methylcellulose and orally administered at a volume of 2 mL/kg. The MBP was measured during 24 hours after the administration.

Compound	Maximum MBP reduction (mmHg)
CCCc1c(Cc2ccc(-c3ccccc3-c3noc(=O)[nH]3)cc2)c(=O)n([C@H]2CC[C@H](OCC(C)(C)O)CC2)c2ccnn12 [Example 415, 4-[trans-4-(2-hydroxy-2-methylpropoxy)cyclohexyl]-6-{[2′-(5-oxo-4,5-dihydro-1,2,4-oxadiazol-3-yl)biphenyl-4-yl]methyl}-7-propylpyrazolo[1,5-a]pyrimidin-5(4H)-one potassium salt]	63
(−)-6-{[3-fluoro-2′-(5-oxo-4,5-dihydro-1,2,4-oxadiazol-3-yl)biphenyl-4-yl]methyl}-4-[trans-4-(2-hydroxy-1,2-dimethylpropoxy)cyclohexyl]-7-propyl[1,2,4]triazolo[1,5-a]pyrimidin-5(4H)-one potassium salt (retention time: long) [Example 459]	64
